Experimental data reported in patent US6432430B1, “Exfoliating scrub with niacinamide” (priority 2000, dated 2002).

Test system: acne
Assay: topical use of the exfoliating scrub on acne, washed off immediately after use
Assay type: in vivo
Settings: niacinamide in exfoliating cream, cream immediately removed
Excerpt: The cream is applied to the affected area, typically the face, and is used in the same manner as other exfoliating scrubs by massaging the cream into the skin. The abrasive agent acts to remove dead skin cells and the niacinamide is brought into direct contact with the affected areas. The cream is then removed by washing the area with water, and if desired, a mild soap. […] The frequency with which the exfoliating scrub is applied depends upon several factors, including the severity of the skin condition, and the user's skin type and sensitivity. Patients having oily skin may use the scrub as often as once to twice per day. Patients having dry skin or sensitive skin generally will use the scrub less often. The precise frequency is determined on a case by case basis influenced by the actual results achieved. As described above, the cream is topically applied to the area to be treated and is gently massaged into the skin. The cream is then immediately removed, preferably with warm water. The skin may beneficially be thoroughly cleansed prior to application of the cream of the present invention. In all cases the scrub is washed from the skin immediately after use.

## NC(=O)c1cccnc1 [niacinamide]
  therapeutic effect on acne: beneficial therapeutic effect on acne
